Test results: patent publication US9504702B2, “Methods of inhibition of protein fucosylation in vivo using fucose analogs” (Seattle Genetics, Inc., priority 2010, dated 2016)
Where two headings read alike, the source gives them in different places.

Tests used:
[1] = test system: antibody core fucosylation (CHO DG44 cell line producing humanized IgG1 anti-CD70 antibody h1F6); assay: Inhibition of antibody core fucosylation in CHO DG44 cell culture producing h1F6; type: cell-based; settings: day 5, CHO DG44 h1F6; for Inhibition at 50 μM: 50 μM fucose analog; for Inhibition at 1 mM / inhibition at 1000 µM: 1 mM fucose analog
Procedure: (§1) Fucose analogs have been evaluated for their effect on antibody core fucosylation at concentrations of 50 μM and 1 mM generally as described in Published US Patent Application 2009-0317869. Briefly, the protocol was as follows: A CHO DG44 cell line producing a humanized IgG1 anti-CD70 monoclonal antibody, h1F6 (see International Patent Publication WO 06/113909) was cultured at 7.5×10^5 cells per mL in 2 mLs of CHO culture media at 37°, 5% CO2 and shaking at 100 RPM in a 6 well tissue culture plate. Media was supplemented with insulin like growth factor (IGF), penicillin, streptomycin and either 1 mM or 50 μM of the fucose analog. On day 5 post inoculation, the culture was centrifuged at 13000 RPM for 5 minutes to pellet the cells; antibodies were then purified from supernatant.
(§2) Antibody purification was performed by applying the conditioned media to protein A resin pre-equilibrated with 1× phosphate buffered saline (PBS), pH 7.4. After washing resin with 20 resin bed volumes of 1×PBS, antibodies were eluted with 5 resin bed volumes of Immunopure IgG elution buffer (Pierce Biotechnology, Rockford, Ill.). A 10% volume of 1M Tris pH 8.0 was added to neutralize the eluted fraction.

[2] = test system: antibodies (h1F6 produced by CHO DG44 cell line); assay: Incorporation of fucose analogs into antibodies in CHO DG44 cell culture; type: cell-based
Procedure: as §1, §2
Certain other fucose analogs were tested for their ability to be incorporated into antibodies. These fucose analogs were tested at concentrations of 50 μM and 1 mM using the methodology as described above.

[3] = test system: LP-1, a human multiple myeloma cell line (IgG fucosylation); assay: Fucosylation of LP-1-generated IgG, AOL dot blot; type: cell-based; settings: for % of control fucosylated IgG value / dot blot results (% fucose signal of control) / inhibition of IgG fucosylation in human cells (decrease in AOL signal, dot blot): 100 μM; for % of control fucosylated IgG value / activity at 100 µM: 5 days, AOL dot blot, multiple samples separated by semicolon; for % of control fucosylated IgG value / activity at 100 µM / inhibition of IgG fucosylation in human cells (decrease in AOL signal, dot blot): LP-1 cells; for activity at 100 µM: Homo sapiens, LP-1, 120 h, read-out: % of control fucosylated IgG value; for dot blot results (% fucose signal of control): LP-1-generated IgG
Procedure: To further evaluate the activities of different fucose analogs, 48 different fucose analogs and other four glycosylation inhibitors were tested for their ability to affect the fucosylation the LP-1-generated IgG. LP-1 cells (250,000 cells/mL, 3 mL per compound in 6-well plates) were incubated with 100 μM of each fucose analog for 5 days at 37° C. with a humidified atmosphere of 5% CO2 in IgG-depleted tissue culture media (90% RPMI with 10% IgG-depleted heat inactivated FBS). The IgG was isolated as described above using only 0.5 mL of MabSelect™ protein A resin slurry and one spin cup per sample with elution in 400 μL of IgG elution buffer into 25 μL of 9 M Tris buffer, pH 9. The eluates were concentrated to 10-20 μL per sample and 2 μL of each of the concentrated eluates were dotted onto a nitrocellulose membrane and stained with Ponceau S to estimate and adjust the sample loading for AOL staining. From this estimation of total protein in each sample, approximately 0.5 μg of each sample was dotted onto the membrane, air-dried, and stained with Ponceau S. An image of this stained membrane was captured using an Alpha Innotech FlourChem® Q system. The membrane was then blocked with 5% Bovine Serum Albumin (BSA) in Tris Buffered Saline (TBS) for 1 hr, washed with TBST (TBS with […]) 3 times and then incubated with 5 μg/ml biotinylated-AOL for 1 hr. The membrane was washed again with TBST 3 times, followed by Streptavidin-HRP incubation for 30 min and final washes with TBST 3 times.

[4] = test system: P-selectin ligand on Ramos cells; assay: Cell surface P-selectin ligand by FACS, P-selectin fusion protein, Ramos; type: cell-based, human
Procedure: 100 μM of each inhibitor was used under standard culture conditions for approximately 1-2 weeks with regular changes of culture medium including fresh inhibitor. After the incubation period, the cells were analyzed by FACS using four different detection reagents: biotinylated-Lens culimaris agglutinin-A (LCA), anti-Lewis' antibody (anti-SSEA1), an anti-Lewis^y antibody (cBR96), and a Recombinant Human P-Selectin/CD62P/Fc Fusion protein. The procedure involved washing of the cells with FACS buffer (PBS+10% bovine serum albumin+0.02% sodium azide) 3 times followed by incubation with the primary detection reagent for 1 hr at 4° C., followed by 3 washes with FACS buffer and then incubation with the secondary detection reagent for 1 hr at 4° C. The cells were finally washed with FACS buffer 3 times and resuspended in FACS buffer and examined using a BD FACScan instrument. […] The P-selectin fusion protein detects P-selectin ligand present on the surface of cells, an interaction which involves the sialyl Lewis' epitope present of the P-selectin ligand.

[5] = test system: antibody core fucosylation (antibodies that did not bind to KLH, recovered from protein A column); assay: In vivo antibody fucosylation after ip dosing (Example 1, Study 1), AOL lectin dot blot; settings: 150 mg/kg ip daily for 7 days
Procedure: Female BALB/c mice were immunized with Keyhole Limpet Hemocyanin (KLH) 30-60 days prior to starting this study. For the first study, mice were dosed ip with 150 mg/kg of alkynyl fucose (SGD-1887), alkynyl fucose peracetate (SGD-1890), 2-fluorofucose (SGD-2083), or 2-fluorofucose triacetate (SGD-2084) daily for 7 days or were untreated. On day 2, mice were also boosted with KLH. On the day after the last ip dose, mice were terminally bled and serum obtained. For the second study, mice were given 100 mM of 2-fluorofucose (SGD-2083) in their drinking water or given untreated water for 7 days, boosted with KLH, and continued with 100 mM 2-fluorofucose containing drinking water or untreated water for 7 more days before being terminally bled. Serum was then obtained. No mice died in either study. For both studies, serum was passed over a commercial anti-KLH affinity column to obtain KLH-specific polyclonal antibodies. The flow through from the anti-KLH affinity column was passed over a commercial protein A column to obtain the remaining antibodies.
Dot blots: 0.5 μg each of antibodies from untreated and treated animals, as well as standards of antibody cAC10 having known amounts of core fucosylation (0 to 100% fucose), were blotted onto a nitrocellulose membrane. The proteins levels were visualized by Ponceau staining. The blot was probed with biotinylated Aspergillus oryzae L-fucose-specific lectin (AOL) (which binds to fucosylated antibodies) and developed with streptavidin HRP and ECL. Gel loading (visible) and fucose signals (bioluminescence) were measured with an Alpha Innotech camera and quantitated with the machine software.

[6] = test system: LP-1 cells (1,6-fucosylation on the antibody); assay: Fucosylation status of LP-1-generated IgG by reducing PLRP-MS; type: cell-based, human; settings: 5 days; for PLRP/MS (inhibition or incorporation): in words
Source text: To further define the results of the AOL dot blot, samples of the IgGs produced by cells treated with the following fucose analogs (that gave moderate to strong decreases in the dot blot AOL signal) were isolated and examined by reducing PLRP-MS to verify the fucosylation status using the MW of the heavy chain: alkynyl fucose peracetate; 5-vinylfucose tetraaceate; 5-methylketofucose tetraacetate; 6-bromofucose tetraacetate; 6-fluorofucose tetraacetate; 5-ethylfucose tetraacetate; 5-epoxyfucose tetraacetate; 6′6-difluorofucose tetraacetate; 6-keto-6-ethyl fucose tetraacetate; and 2-fluorofucose peracetate.
40 mL samples of LP-1 cells (250,000 cells/mL) were treated with 100 μM of a fucose analog for 5 days as described above, and the IgGs were purified as described using protein A resin. The yields were estimated by UV spectroscopy assuming an extinction coefficient of 1.4 AU/(mg/mL). Seven of the ten compounds yielded enough IgG to perform the analysis (use of SGD-2067, SGD-1964, and SGD-2020 yielded <10 μg of IgG, likely due to toxicity of the analogs to the cells). The remaining IgGs were reduced with 10 mM DTT at 37° C. for 15 min and were separated on PLRP followed by MS analysis using a QTOF mass spectrometer. The resulting heavy chain peaks were examined and compared to the IgG generated by untreated cells.
The mass spectrometry signals were evaluated by comparing the peak height of the heavy chain versus heavy chain minus fucose and heavy chain minus fucose plus the mass of the fucose analog (which would arise if there was incorporation of the analog into the antibody carbohydrate).

[7] = concentration not given in the cell (tested at 50 μM and 1 mM)
[8] = 120 h, read-out: Inhibition at 50 μM

Compound | Inhibition at 50 μM [1] [%] | Inhibition at 1 mM [1] | % Incorporation ([2]; 50 uM) | % Incorporation ([2]; 1 mM) | activity at 100 µM [3] [%] | PLRP/MS (inhibition or incorporation) ([6]; 100 μM) | dot blot results (% fucose signal of control) [3] | inhibition of IgG fucosylation in human cells (decrease in AOL signal, dot blot) [3] | also measured
6-allene fucose tetraacetate [SGD-2097] | 23 | 34% |  |  |  |  |  |  | % Incorporation [2, 7]: ~30%; % of control fucosylated IgG value [3]: 45 % of control
CC[C@@H]1OC(O)[C@@H](O)[C@H](O)[C@@H]1O (stereo partly drawn) [5-ethyl fucose, (3S,4R,5S,6S)-6-ethyl-tetrahydro-2H-pyran-2,3,4,5-tetraol] |  |  | >80% | >80% |  |  |  |  | 
CC(=O)OC1O[C@@H]([C@]2(C)CO2)[C@@H](OC(C)=O)[C@@H](OC(C)=O)[C@@H]1OC(C)=O (stereo partly drawn) [5-methyloxiran-arabinose tetraacetate, (3S.4R.5S.6R)-6-((S)-2-methyloxiran-2-yl)-tetrahydro-2H-pyran-2,3,4,5-tetrayl tetraacetate] | ~0 | ~35-40% |  |  |  |  |  |  | % Incorporation [2, 7]: ~60%
C=C(C)[C@@H]1OC(OC(C)=O)[C@@H](OC(C)=O)[C@H](OC(C)=O)[C@@H]1OC(C)=O (stereo partly drawn) [Isopropenyl peracetyl fucose, (3S,4R,5R,6S)-6-(prop-1-en-2-yl)-tetrahydro-2H-pyran-2,3,4,5-tetrayl tetraacetate] |  |  | >80% (1 mM and 50 uM) | >80% (1 mM and 50 uM) |  |  |  |  | 
C#CC(O)[C@@H](O)[C@@H](O)[C@H](O)C=O (some centres unmarked) [SGD-1887, 5-ethynylarabinose] |  |  |  |  | 3 |  |  |  | Inhibition at 50 μM [1, 8]: > 80%; signal for P-selectin ligand (increase upon treatment) [4]: not observed; mortality [5]: No mice died; fucosylation levels of the antibodies reduced, as compared to the untreated controls ([5]; non-KLH antibodies from protein A column, dot blot, on average): about one third
C=CC1OC(OC(C)=O)C(OC(C)=O)C(OC(C)=O)C1OC(C)=O (centres unmarked) [SGD-1922, 5-ethylenylarabinose tetraacetate] | ~0 | ~4% |  |  |  | Full incorporator | 2 % fucose signal of control |  | % of control fucosylated IgG value [3]: 2 % of control
CC(=O)OC1OC(CBr)[C@@H](OC(C)=O)[C@@H](OC(C)=O)[C@@H]1OC(C)=O (stereo partly drawn) [SGD-1969, (3S,4R,5S)-6-(bromomethyl)tetrahydro-2H-pyran-2,3,4,5-tetrayl tetraacetate] |  |  | ~50% | 20% at | 1 | Partial incorporator | 1 % fucose signal of control | potentially strong inhibitors | inhibition at 100 µM ([6]; Homo sapiens, 120 h, heavy chain peak heights, read-out: PLRP/MS fucose inhibition): 20%; Inhibition at 50 μM [1, 8]: 50%; inhibition at 1000 µM ([1]; 120 h): 80%
C#CC[C@@H]1OC(OC(C)=O)[C@@H](OC(C)=O)[C@H](OC(C)=O)[C@@H]1OC(C)=O (stereo partly drawn) [SGD-1987, (3S,4R,5R,6S)-6-(prop-2-ynyl)-tetrahydro-2H-pyran-2,3,4,5-tetrayl tetraacetate] |  |  |  | 80% (1 mM) | 38 |  |  |  | Inhibition at 50 μM [1, 8]: ~10%; inhibition at 1000 µM ([1]; 120 h): 10 to 20%
CC(=O)OC1OC(CF)[C@@H](OC(C)=O)[C@@H](OC(C)=O)[C@@H]1OC(C)=O (stereo partly drawn) [SGD-1988, (3S,4R,5S)-6-(fluoromethyl)tetrahydro-2H-pyran-2,3,4,5-tetrayl tetraacetate] |  |  | >90% | >90% | 15 | Full incorporator | 15 % fucose signal of control | potentially strong inhibitors | 
CC[C@@H]1OC(OC(C)=O)[C@@H](OC(C)=O)[C@H](OC(C)=O)[C@H]1OC(C)=O (stereo partly drawn) [SGD-1989, (3S,4R,5S,6S)-6-ethyl-tetrahydro-2H-pyran-2,3,4,5-tetrayl tetraacetate] |  |  | >90% | >90% | 11 | Fully incorporated | 11 % fucose signal of control | potentially strong inhibitors | 
CC(=O)OC1OC(C(F)F)C(OC(C)=O)C(OC(C)=O)C1OC(C)=O (centres unmarked) [SGD-2046, 6′6-difluoro fucose tetraacetate] | >80 | >80% |  |  |  | Partial incorporator | 2 % fucose signal of control | potentially strong inhibitors | PLRP/MS fucose inhibition ([6]; 100 μM, heavy chain peak heights): ~33%; % of control fucosylated IgG value [3]: 2 % of control
